From ChEMBL document CHEMBL5291721, “A preclinical secondary pharmacology resource illuminates target-adverse drug reaction associations of marketed drugs” (Nat Commun, 2023) come the findings set out here.

The target of experiment [1] is T1, Estrogen receptor (Homo sapiens, UniProt P03372).
T1 sequence (P03372 whole entry): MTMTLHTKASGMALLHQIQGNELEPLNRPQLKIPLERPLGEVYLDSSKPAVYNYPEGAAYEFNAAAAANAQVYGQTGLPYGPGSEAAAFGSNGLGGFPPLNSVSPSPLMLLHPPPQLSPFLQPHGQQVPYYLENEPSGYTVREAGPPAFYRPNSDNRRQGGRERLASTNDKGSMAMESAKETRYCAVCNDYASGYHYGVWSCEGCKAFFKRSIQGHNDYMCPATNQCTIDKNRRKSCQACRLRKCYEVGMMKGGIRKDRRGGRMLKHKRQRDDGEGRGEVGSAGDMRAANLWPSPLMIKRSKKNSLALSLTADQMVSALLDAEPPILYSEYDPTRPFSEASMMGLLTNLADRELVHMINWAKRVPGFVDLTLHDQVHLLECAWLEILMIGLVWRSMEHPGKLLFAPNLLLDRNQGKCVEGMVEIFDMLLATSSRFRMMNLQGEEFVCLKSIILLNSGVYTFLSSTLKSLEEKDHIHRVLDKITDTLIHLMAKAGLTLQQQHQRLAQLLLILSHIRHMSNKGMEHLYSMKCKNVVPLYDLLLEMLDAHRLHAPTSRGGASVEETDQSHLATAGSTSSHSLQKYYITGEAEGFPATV
Format: functional.

For experiment [2], the target named is T2, Neuropeptide Y receptor type 2 (Homo sapiens, UniProt P49146).
T2 sequence (P49146 whole entry): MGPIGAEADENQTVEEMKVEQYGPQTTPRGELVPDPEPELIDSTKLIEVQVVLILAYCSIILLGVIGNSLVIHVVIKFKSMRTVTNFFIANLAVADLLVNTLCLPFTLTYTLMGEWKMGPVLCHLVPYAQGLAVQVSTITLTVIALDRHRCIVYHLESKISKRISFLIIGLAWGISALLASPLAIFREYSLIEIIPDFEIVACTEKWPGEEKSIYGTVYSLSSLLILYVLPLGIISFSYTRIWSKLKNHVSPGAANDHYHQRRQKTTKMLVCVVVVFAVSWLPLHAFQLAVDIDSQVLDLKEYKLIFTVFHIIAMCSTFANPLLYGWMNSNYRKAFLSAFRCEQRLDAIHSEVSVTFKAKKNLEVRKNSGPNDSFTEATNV

In experiment [3] the target is T3, Peroxisome proliferator-activated receptor gamma (Homo sapiens, UniProt P37231).
T3 sequence (P37231 whole entry): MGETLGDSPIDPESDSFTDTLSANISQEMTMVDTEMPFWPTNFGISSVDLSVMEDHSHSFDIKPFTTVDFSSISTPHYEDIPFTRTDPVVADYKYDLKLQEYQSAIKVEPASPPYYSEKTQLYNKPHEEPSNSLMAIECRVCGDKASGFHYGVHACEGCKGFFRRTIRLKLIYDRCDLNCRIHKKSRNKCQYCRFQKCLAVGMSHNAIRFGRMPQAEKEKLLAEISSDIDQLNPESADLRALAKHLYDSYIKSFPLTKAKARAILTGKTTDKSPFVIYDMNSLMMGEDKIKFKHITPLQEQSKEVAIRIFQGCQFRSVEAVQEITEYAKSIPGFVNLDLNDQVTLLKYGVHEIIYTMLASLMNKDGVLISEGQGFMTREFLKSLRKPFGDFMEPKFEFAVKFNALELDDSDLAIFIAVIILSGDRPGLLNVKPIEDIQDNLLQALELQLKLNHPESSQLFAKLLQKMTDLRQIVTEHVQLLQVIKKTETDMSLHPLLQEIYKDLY
The experiment is classed as functional.

Experiment [4] addresses T3, Peroxisome proliferator-activated receptor gamma. The experiment is classed as functional. The source holds these as a separate data set.
In experiment [5] the target is T4, Muscarinic acetylcholine receptor M1 (Homo sapiens, UniProt P11229).
T4 sequence (P11229 whole entry): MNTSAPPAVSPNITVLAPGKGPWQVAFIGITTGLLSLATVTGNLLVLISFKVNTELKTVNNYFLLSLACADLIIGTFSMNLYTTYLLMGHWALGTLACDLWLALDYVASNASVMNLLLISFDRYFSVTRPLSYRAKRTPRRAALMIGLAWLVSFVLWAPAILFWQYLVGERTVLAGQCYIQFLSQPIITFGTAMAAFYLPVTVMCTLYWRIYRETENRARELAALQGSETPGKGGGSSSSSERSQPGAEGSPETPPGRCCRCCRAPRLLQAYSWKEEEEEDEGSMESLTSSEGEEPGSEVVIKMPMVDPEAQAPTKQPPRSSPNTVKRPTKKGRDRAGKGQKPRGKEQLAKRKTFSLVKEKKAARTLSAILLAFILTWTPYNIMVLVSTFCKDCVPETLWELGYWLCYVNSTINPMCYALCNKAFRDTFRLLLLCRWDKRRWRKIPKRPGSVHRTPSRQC
The experiment is classed as functional.

Experiment [6] has as its target Synaptic vesicular amine transporter (Rattus norvegicus, UniProt Q01827). The experiment is classed as functional.
The target of experiment [7] is T5, Alpha-1A adrenergic receptor (Homo sapiens, UniProt P35348).
T5 sequence (P35348 whole entry): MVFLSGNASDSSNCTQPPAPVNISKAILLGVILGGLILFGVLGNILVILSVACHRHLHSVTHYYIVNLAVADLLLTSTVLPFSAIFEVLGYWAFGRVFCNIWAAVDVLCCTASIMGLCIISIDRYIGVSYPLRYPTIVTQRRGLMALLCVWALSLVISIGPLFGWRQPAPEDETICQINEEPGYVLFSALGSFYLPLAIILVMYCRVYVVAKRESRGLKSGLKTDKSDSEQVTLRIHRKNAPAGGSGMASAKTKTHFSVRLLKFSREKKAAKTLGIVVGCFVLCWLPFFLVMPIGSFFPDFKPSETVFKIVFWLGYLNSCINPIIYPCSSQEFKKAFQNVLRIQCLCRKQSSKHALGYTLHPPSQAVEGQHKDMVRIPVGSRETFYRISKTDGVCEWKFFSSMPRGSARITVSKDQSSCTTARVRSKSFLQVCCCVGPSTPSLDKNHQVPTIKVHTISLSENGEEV

In experiment [8] the target is T6, Thromboxane A2 receptor (Homo sapiens, UniProt P21731).
T6 sequence (P21731 whole entry): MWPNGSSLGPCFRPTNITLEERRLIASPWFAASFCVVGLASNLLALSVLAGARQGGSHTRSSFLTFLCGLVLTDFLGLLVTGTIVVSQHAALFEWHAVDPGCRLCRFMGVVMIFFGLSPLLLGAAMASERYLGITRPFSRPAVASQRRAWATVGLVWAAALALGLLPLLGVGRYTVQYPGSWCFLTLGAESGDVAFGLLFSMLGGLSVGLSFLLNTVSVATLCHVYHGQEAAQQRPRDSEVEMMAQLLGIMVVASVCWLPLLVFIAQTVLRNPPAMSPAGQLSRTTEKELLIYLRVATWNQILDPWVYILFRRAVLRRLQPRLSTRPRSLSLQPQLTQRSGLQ
Format: functional.

The target in experiment [9] is T6, Thromboxane A2 receptor. Format: functional, cell-based.
Note: assay procedure not described here.

Chain of Synaptic vesicular amine transporter (Q01827 whole entry): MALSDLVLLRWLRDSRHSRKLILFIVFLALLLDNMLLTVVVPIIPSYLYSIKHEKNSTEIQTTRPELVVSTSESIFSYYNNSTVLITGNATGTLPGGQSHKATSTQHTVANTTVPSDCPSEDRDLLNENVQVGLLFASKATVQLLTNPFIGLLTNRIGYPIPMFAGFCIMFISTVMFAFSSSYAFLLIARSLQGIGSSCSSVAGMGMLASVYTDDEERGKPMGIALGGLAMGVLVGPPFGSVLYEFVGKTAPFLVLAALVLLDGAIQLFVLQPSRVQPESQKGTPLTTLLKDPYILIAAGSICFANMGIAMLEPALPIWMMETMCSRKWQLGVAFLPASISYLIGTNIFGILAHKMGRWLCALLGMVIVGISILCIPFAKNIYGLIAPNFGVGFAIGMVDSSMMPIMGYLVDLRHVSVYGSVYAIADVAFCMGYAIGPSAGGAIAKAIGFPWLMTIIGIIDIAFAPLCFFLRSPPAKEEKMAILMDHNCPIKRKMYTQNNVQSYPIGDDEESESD

Regarding `CCOc1nc2cccc(C(=O)O)c2n1Cc1ccc(-c2ccccc2-c2nnn[nH]2)cc1`, the AC50 in [1] is more than 30 µM; in [2], more than 30 µM; in experiment [3] it was more than 30 µM; in experiment [4], 18 µM.
Consider `CCCc1nc2c(C)cc(-c3nc4ccccc4n3C)cc2n1Cc1ccc(-c2ccccc2C(=O)O)cc1`, for which the AC50 in [5] is more than 30 µM; in experiment [1], more than 30 µM; in experiment [2], more than 30 µM; in [3] it was more than 30 µM; in experiment [4] it was 19 µM.
In the case of `CC(=O)Nc1ccc(CC(=O)O)cc1` [ACTARIT], the AC50 in experiment [5] was more than 30 µM.
Take `O=C(O)c1ccccc1` [BENZOIC ACID]: the AC50 in experiment [6] came to 18 µM.
Take `Nc1c(CC(=O)O)cccc1C(=O)c1ccc(Br)cc1` [BROMFENAC]: the concentration at half-maximal activity (AC50) in [7] is more than 30 µM.
For `CC1(C)S[C@@H]2[C@H](NC(=O)C(C(=O)O)c3ccccc3)C(=O)N2[C@H]1C(=O)O` (stereo not given in full) [CARBENICILLIN], the AC50 in experiment [5], in experiment [3] and in experiment [4] was more than 30 µM in each case.
In turn, `CC=CC1=C(C(=O)O)N2C(=O)[C@@H](NC(=O)[C@H](N)c3ccc(O)cc3)[C@H]2SC1` [CEFPROZIL] returned an AC50 in experiment [5] of more than 30 µM.
With `CC(C)NC(=N)NC(=N)Nc1ccc(Cl)c(Cl)c1` [CHLORPROGUANIL], the AC50 in experiment [7] is 2.74 µM; in experiment [5], more than 30 µM.
In [2], `CCCNC(=O)NS(=O)(=O)c1ccc(Cl)cc1` [CHLORPROPAMIDE] registered an AC50 of more than 30 µM.
Consider `C[N+](C)(C)CCOP(=O)(O)OP(=O)([O-])OC[C@H]1O[C@@H](n2ccc(N)nc2=O)[C@H](O)[C@@H]1O` [CITICOLINE], for which, in experiment [5], the AC50 is more than 10 µM.
Turning to `Clc1ccc(Cn2c(CN3CCCC3)nc3ccccc32)cc1` [CLEMIZOLE], the AC50 in [5] was more than 30 µM; in experiment [3] it was more than 30 µM; in experiment [4] it was more than 30 µM; in experiment [8], more than 10 µM; in experiment [9] it was more than 10 µM.
For `CCC(=O)O[C@]1(C(=O)CCl)[C@@H](C)C[C@H]2[C@@H]3CCC4=CC(=O)C=C[C@]4(C)[C@@]3(F)[C@@H](O)C[C@@]21C` [CLOBETASOL PROPIONATE], the AC50 in experiment [1] is more than 30 µM; in experiment [3] it was more than 30 µM; in experiment [4], 18 µM.
As to `Cc1nc(Nc2ncc(C(=O)Nc3c(C)cccc3Cl)s2)cc(N2CCN(CCO)CC2)n1` [DASATINIB], the values for the half-maximal activity concentration (AC50) in experiment [5] and in experiment [2] were more than 30 µM and more than 10 µM, respectively.
In experiment [1], `CC(C)Cc1ccc([C@H](C)C(=O)O)cc1` [DEXIBUPROFEN] came in with an AC50 of more than 30 µM.
As for `O=C(O)Cc1ccccc1Nc1c(Cl)cccc1Cl` [DICLOFENAC], the AC50 in experiment [2] is more than 30 µM.
On to `CN[C@@H]1[C@H](O[C@H]2[C@H](O[C@H]3[C@H](O)[C@@H](O)[C@H](NC(=N)N)[C@@H](O)[C@@H]3NC(=N)N)O[C@@H](C)[C@]2(O)CO)O[C@@H](CO)[C@H](O)[C@H]1O` [DIHYDROSTREPTOMYCIN], for which, in experiment [7], the AC50 is more than 30 µM.
As for `CNC[C@H](O)c1ccc(O)c(O)c1` [EPINEPHRINE], the AC50 in [1], in experiment [3] and in experiment [4] was more than 30 µM throughout.
As to `O=C(O)Cc1ccccc1Oc1ccc(Cl)cc1Cl` [FENCLOFENAC], the concentration at half-maximal activity (AC50) in experiment [5] is more than 10 µM; in [2], more than 30 µM.
In experiment [2], `Cc1ccc(C)c(OCCCC(C)(C)C(=O)O)c1` [GEMFIBROZIL] yielded an AC50 of more than 30 µM.
Compound `C#C[C@]1(O)C=C[C@H]2[C@@H]3CCC4=CC(=O)CC[C@@H]4[C@H]3CC[C@@]21CC` [GESTODENE] came in with an AC50 in experiment [7] of more than 30 µM.
As for `CCCCCCCN(CC)CCCC(O)c1ccc(NS(C)(=O)=O)cc1` (stereo not given) [IBUTILIDE], the AC50 in experiment [5] is more than 30 µM.
For `COc1cc(C(C)=O)ccc1OCCCN1CCC(c2noc3cc(F)ccc23)CC1` [ILOPERIDONE], the AC50 is 6.38 µM in experiment [5], more than 30 µM in experiment [1], more than 30 µM in experiment [3] and more than 30 µM in [4].
Consider `CC[C@H](C)C(=O)O[C@H]1C[C@@H](C)C=C2C=C[C@H](C)[C@H](CC[C@@H]3C[C@@H](O)CC(=O)O3)[C@H]21` [LOVASTATIN], for which, in [2], the AC50 is more than 30 µM.
The compound `CC[C@@H](CO)NC(=O)[C@@H]1C=C2c3cccc4c3c(cn4C)C[C@H]2N(C)C1` [METHYSERGIDE] showed an AC50 in [2] of more than 30 µM.
With `CN1Cc2c(N)cccc2C(c2ccccc2)C1` (stereo not given) [NOMIFENSINE], the AC50 is more than 30 µM in [5] and 28.8 µM in experiment [6].
In the case of `C=CC(=O)Nc1cccc(Oc2nc(Nc3ccc(N4CCN(C)CC4)cc3)nc3ccsc23)c1` [OLMUTINIB], in experiment [6], the activity was half-maximal at 0.44 µM (AC50).
On to `CC(CN1c2ccccc2Sc2ccccc21)N(C)C` (stereo not given) [PROMETHAZINE], for which the values for the AC50 in experiment [7] and in [2] were 0.03 µM and more than 30 µM, respectively.
Regarding `Cn1cc(C(=O)[C@@H]2CCc3nc[nH]c3C2)c2ccccc21` [RAMOSETRON], in experiment [5], the AC50 is more than 30 µM.
Compound `CN(CCOc1ccc(CC2SC(=O)NC2=O)cc1)c1ccccn1` (stereo not given) [ROSIGLITAZONE] returned an AC50 in experiment [2] of more than 30 µM.
`Cc1ccccc1C(=O)Nc1ccc(C(=O)N2CCCC(O)c3cc(Cl)ccc32)c(C)c1` (stereo not given) [TOLVAPTAN] showed an AC50 in [6] of more than 30 µM.
With `CC(C)C[C@H](NC(=O)[C@@H](O)[C@H](N)Cc1ccccc1)C(=O)O` [UBENIMEX], the AC50 in experiment [7] was more than 30 µM.
`CC(C)[C@H](N)C(=O)OCCOCn1cnc2c(=O)[nH]c(N)nc21` [VALACYCLOVIR] registered an AC50 in experiment [2] of more than 30 µM.
With `O=C1Cc2cc(CCN3CCN(c4nsc5ccccc45)CC3)c(Cl)cc2N1` [ZIPRASIDONE], the values for the concentration at half-maximal activity (AC50) in experiment [5], in [2] and in experiment [6] were more than 10 µM, more than 30 µM and 0.0035 µM, respectively.
